Two compounds from patent publication US11771124B2, “Composition comprising mannose oligosaccharide and process for making same and use thereof” (CARGILL, INCORPORATED, priority 2017, dated 2023) can be followed below.

Experiment [1] is described as follows: Trial 3: broiler performance with or without chlortetracycline. Conditions: Composition A dose 0.02%. It counts as in vivo, broiler chickens.
The next experiment concerns C2Be1 cell line. Briefly: Intestinal cell proliferation in vitro (BrdU ELISA). It is filed as cell-based. How it is done:
Cells were treated with products under serum-limited conditions for 4-5 days. BrdU ELISA is used to measure the amount of proliferation, where it measures the amount of BrdU incorporated into proliferating cells (the more proliferation, the more BrdU that will be detected in the DNA of the cells). Levels of proliferation are expressed as a ratio calculated by dividing the BrdU incorporation of test wells by that of the controls that has medium only. […] The assay is repeated in triplicate on two separate occasions. […]

Marks after values point to notes of the source that are not given here.

Consider `CN(C)[C@@H]1C(O)=C(C(N)=O)C(=O)[C@@]2(O)C(O)=C3C(=O)c4c(O)ccc(Cl)c4[C@@](C)(O)[C@H]3C[C@@H]12` [CTC, chlortetracycline], for which the BW35 in experiment [1] (broiler chickens up to 35 days of age) is 1978.6^b g. Also, in experiment [1] (broiler chickens), the “ADFI 0-35” value was determined as 90.8c g, the “ADG 0-35” value is reported as 55.4^b g, the BW0 is recorded as 40.2^ns g and the “F:G 0-35” value is listed as 1.64^b.

On to “EGF: epithelial growth factor, positive control known to affect cell proliferation”, for which, in the experiment on C2Be1 cell line (EGF concentration 10), the “% compared to media only (control), Mean” value is 113.5% and the “Proliferation Ratio (relative to control = 1), Mean” value is listed as 1.13. In addition, in the experiment on C2Be1 cell line (EGF concentration 100), the “% compared to media only (control), Mean” value is 119.6% and the “Proliferation Ratio (relative to control = 1), Mean” value was determined as 1.20.
